Biological target: T1, GSNOR (Homo sapiens, UniProt P11766)
T1 construct: made in house; host or cells: E. coli (arabinose-induced)
Assay: GSNOR assay (inhibition of GSNOR activity, NADH absorbance at 340 nm)
Type: biochemical
Conditions: assay of Example 24; 0.240 mM GSNO, 0.300 mM NADH, pH 7.4, 25° C.; read-out: IC50 (GSNOR inhibitor activity)
Method: Various compounds were tested in vitro for their ability to inhibit GSNOR activity. GSNOR expression and purification is described in Biochemistry 2000, 39, 10720-10729.
GSNOR Fermentation: Pre-cultures were grown from stabs of a GSNOR glycerol stock in 2XYT media containing 100 ug/ml ampicillin after an overnight incubation at 37° C. Cells were then added to fresh 2XYT (4 L) containing ampicillin and grown to an OD (A600) of 0.6-0.9 at 37° C. before induction. GSNOR expression was induced with 0.1% arabinose in an overnight incubation at 20° C.
GSNOR Purification: E. coli cell paste was lysed by nitrogen cavitation and the clarified lysate purified by Ni affinity chromatography on an AKTA FPLC (Amersham Pharmacia). The column was eluted in 20 mM Tris pH 8.0/250 mM NaCl with a 0-500 mM imidazole gradient. Eluted GSNOR fractions containing the Smt-GSNOR fusion were digested overnight with Ulp-1 at 4° C. to remove the affinity tag then re-run on the Ni column under the same conditions. GSNOR was recovered in the flowthrough fraction and for crystallography is further purified by Q-Sepharose and Heparin flowthrough chromatography in 20 mM Tris pH 8.0, 1 mM DTT, 10 uM ZnSO4.
GSNOR Assay: GSNO and Enzyme/NADH Solutions are made up fresh each day. The Solutions are filtered and allowed to warm to room temperature. GSNO Solution: 100 mM NaPO4 (pH 7.4), 0.480 mM GSNO. 396 μL of GSNO Solution is added to a cuvette followed by 8 μL of test compound in DMSO (or DMSO only for full reaction control) and mixed with the pipette tip. Compounds to be tested are made up at a stock concentration of 10 mM in 100% DMSO. 2 fold serial dilutions are done in 100% DMSO. 8 μL of each dilution are added to an assay so that the final concentration of DMSO in the assay is 1%. The concentrations of compounds tested range from 100 to 0.003 μM. Enzyme/NADH Solution: 100 mM NaPO4 (pH 7.4), 0.600 mM NADH, 1.0 μg/mL GSNO Reductase. 396 μL of the Enzyme/NADH Solution is added to the cuvette to start the reaction. The cuvette is placed in the Cary 3E UV/Visible Spectrophotometer and the change in 340 nm absorbance/min at 25° C. is recorded for 3 minutes. The assays are done in triplicate for each compound concentration. IC50's for each compound are calculated using the standard curve analysis in the Enzyme Kinetics Module of SigmaPlot.
Final assay conditions: 100 mM NaPO4, pH 7.4, 0.240 mM GSNO, 0.300 mM NADH, 0.5 μg/mL GSNO Reductase and 1% DMSO. Final volume: 800 μL/cuvette.

T1 sequence (P11766 whole entry): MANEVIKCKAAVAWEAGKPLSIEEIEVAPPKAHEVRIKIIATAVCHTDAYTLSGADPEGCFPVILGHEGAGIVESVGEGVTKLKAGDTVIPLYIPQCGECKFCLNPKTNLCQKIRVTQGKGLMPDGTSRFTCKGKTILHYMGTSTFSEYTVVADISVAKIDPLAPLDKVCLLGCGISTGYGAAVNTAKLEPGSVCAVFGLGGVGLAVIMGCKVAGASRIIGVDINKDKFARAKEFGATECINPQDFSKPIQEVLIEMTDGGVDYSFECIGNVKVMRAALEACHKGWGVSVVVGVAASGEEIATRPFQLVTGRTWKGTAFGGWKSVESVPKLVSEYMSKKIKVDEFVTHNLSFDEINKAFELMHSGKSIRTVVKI

Structure (SMILES)	IC50 [nM]
CC(C)c1oc2cc(O)ccc2c(=O)c1-c1ccc(C(=O)O)cc1 [Example 3, 4-(7-hydroxy-2-isopropyl-4-oxo-4H-chromen-3-yl)benzoic acid]	< 500
Cc1oc2cc(O)ccc2c(=O)c1-c1ccc(C(=O)O)cc1 [Example 5, 4-(7-hydroxy-2-methyl-4-oxo-4H-chromen-3-yl)benzoic acid]	< 500
O=C(O)c1ccc(-c2c(Cc3ccccc3)oc3cc(O)ccc3c2=O)cc1 [Example 6, 4-(2-benzyl-7-hydroxy-4-oxo-4H-chromen-3-yl)benzoic acid]	< 500
O=C(O)c1ccc(-c2c(C(F)(F)F)oc3cc(O)c(F)cc3c2=O)cc1 [Example 13, 4-(6-fluoro-7-hydroxy-4-oxo-2-(trifluoromethyl)-4H-chromen-3-yl)benzoic acid]	< 500
O=C(O)c1ccc(-c2c(C(F)(F)F)oc3cc(O)ccc3c2=O)cc1F [Example 14, 2-fluoro-4-(7-hydroxy-4-oxo-2-(trifluoromethyl)-4H-chromen-3-yl)benzoic acid]	< 100
O=C(O)c1ccc(-c2c(C(F)(F)F)oc3cc(O)ccc3c2=O)c(Cl)c1 [Example 15, 3-chloro-4-(7-hydroxy-4-oxo-2-(trifluoromethyl)-4H-chromen-3-yl)benzoic acid]	< 100
CC(F)(F)c1oc2cc(O)ccc2c(=O)c1-c1ccc(C(=O)O)cc1 [Example 16, 4-(2-(1,1-difluoroethyl)-7-hydroxy-4-oxo-4H-chromen-3-yl)benzoic acid]	< 100
O=C(O)c1ccc(-c2c(C(F)(F)F)oc3cc(O)ccc3c2=O)cc1Cl [Example 18, 2-chloro-4-(7-hydroxy-4-oxo-2-(trifluoromethyl)-4H-chromen-3-yl)benzoic acid]	< 100
COc1cc(C(=O)O)ccc1-c1c(C(F)(F)F)oc2cc(O)ccc2c1=O [Example 20, 4-(7-hydroxy-4-oxo-2-(trifluoromethyl)-4H-chromen-3-yl)-3-methoxybenzoic acid]	< 100

Next, values leading:

IC50 [nM]	Structure (SMILES)
< 100	O=C(O)c1ccc(-c2c(C(F)F)oc3cc(O)ccc3c2=O)cc1 [Example 1, 4-(2-(difluoromethyl)-7-hydroxy-4-oxo-4H-chromen-3-yl)benzoic acid]
< 500	COCc1oc2cc(O)ccc2c(=O)c1-c1ccc(C(=O)O)cc1 [Example 2, 4-(7-hydroxy-2-(methoxymethyl)-4-oxo-4H-chromen-3-yl)benzoic acid]
< 100	O=C(O)c1ccc(-c2c(C(F)(F)F)oc3cc(O)ccc3c2=O)cc1 [Example 10, 4-(7-hydroxy-4-oxo-2-(trifluoromethyl)-4H-chromen-3-yl)benzoic acid]
< 500	CCC(F)(F)c1oc2cc(O)ccc2c(=O)c1-c1ccc(C(=O)O)cc1 [Example 19, 4-(2-(1,1-difluoropropyl)-7-hydroxy-4-oxo-4H-chromen-3-yl)benzoic acid]

Same assay, conditions: method described in Example 24; comparative example; read-out: IC50 (GSNOR inhibitor activity)

IC50 [nM]	Structure (SMILES)
135	O=C(O)c1ccc(-c2coc3cc(O)ccc3c2=O)cc1 [Example 22, 4-(7-hydroxy-4-oxo-4H-chromen-3-yl)benzoic acid, reference compound]

System: not listed separately
Assay: Mouse pharmacokinetic (PK) study
Type: in vivo
Conditions: plasma, male BALB/c mice, 10 mg/kg PO vs 2 mg/kg IV, single dose, based on area under the curve
From the text: The mouse is used to determine the pharmacokinetics of GSNOR inhibitors. This species is widely used to assess the bioavailability of compounds by administering both oral (PO) and intravenous (IV) test articles. Efficacy of the GSNOR inhibitors can be compared by assessing plasma exposure in male BALB/c mice either via IV or PO administration at the times of peak activity.
The GSNOR inhibitor Compound 10 was reconstituted in a phosphate buffered saline (PBS)/10% Solutol (HS 15) clear solution resulting in a concentration of 0.2 mg/mL and administered to mice (2 mg/kg) as a single IV dose. Animals were dosed via the lateral tail vein. […] The plasma was transferred into labeled polypropylene tubes and frozen at −70° C. until analyzed by LC/MS/MS.
The GSNOR inhibitor Compound 10 was reconstituted in 40% Propylene Glycol/40% Propylene Carbonate/20% of a 5% Sucrose clear solution resulting in a concentration of 2 mg/mL and administered to mice (10 mg/kg) as a single oral dose via gavage. […] The plasma was transferred into labeled polypropylene tubes and frozen at −70° C. until analyzed by LC/MS/MS.
Plasma samples at each timepoint were analyzed using a LC-MS/MS with a lower limit of quantification (LLOQ) of 1 ng/mL. Plasma was analyzed to determine the amount of the GSNOR inhibitor in each sample and regression curves were generated for each GSNOR inhibitor in the relevant matrixes. […]

bioavailability [%]	Structure (SMILES)
> 17	O=C(O)c1ccc(-c2c(C(F)(F)F)oc3cc(O)ccc3c2=O)cc1 [Example 10, 4-(7-hydroxy-4-oxo-2-(trifluoromethyl)-4H-chromen-3-yl)benzoic acid]
